The text below walks through data of PubChem BioAssay AID330 (DTP/NCI, 2004).

Structures are written as SMILES. Several values for one entry are separate records, joined by “and”; a condition that tells them apart may be missing. Equal entries are not always repeated. Toxic doses and inconclusive results are not listed.

For this test, the system named is P388 leukemia ip, CD2F1 mice, survival T/C. In words: NCI In Vivo Anticancer Drug Screen. Data for tumor model P388 Leukemia (intraperitoneal) in CD2F1 (CDF1) mice. The conditions noted are these: endpoint: median survival time, higher = longer survival. In outline:
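Mice carrying the transplanted tumor received test compound or vehicle. Survival was recorded in each group, and the value is the treated-group measurement divided by that of the vehicle-treated control group.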

Setting [1] is: dose: 50.0 mg/kg/injection, schedule: Q01DX009 (ip), vehicle: saline with Tween-80.
Setting [2] is: dose: 100.0 mg/kg/injection, schedule: Q01DX009 (ip), vehicle: saline with Tween-80.
[3] abbreviates: dose: 50.0 mg/kg/injection, schedule: Q01DX005 (ip), vehicle: Klucel (hydroxypropylcellulose) (HPC).
[4] abbreviates: dose: 100.0 mg/kg/injection, schedule: Q01DX005 (ip), vehicle: Klucel (hydroxypropylcellulose) (HPC).
Setting [5] is: dose: 200.0 mg/kg/injection, schedule: Q01DX005 (ip), vehicle: Klucel (hydroxypropylcellulose) (HPC).
Where [6] appears, read: dose: 50.0 mg/kg/injection, schedule: Q01DX009 (ip), vehicle: saline.
Setting [7] is: dose: 100.0 mg/kg/injection, schedule: Q01DX009 (ip), vehicle: saline.
The mark [8] stands for this setting: dose: 200.0 mg/kg/injection, schedule: Q01DX009 (ip), vehicle: saline.
[9] abbreviates: dose: 50.0 mg/kg/injection, schedule: Q01DX005 (ip), vehicle: saline with Tween-80.
[10] abbreviates: dose: 100.0 mg/kg/injection, schedule: Q01DX005 (ip), vehicle: saline with Tween-80.
[11] abbreviates: dose: 200.0 mg/kg/injection, schedule: Q01DX005 (ip), vehicle: saline with Tween-80.
[12] abbreviates: dose: 200.0 mg/kg/injection, schedule: Q01DX009 (ip), vehicle: saline with Tween-80.
[13] abbreviates: dose: 50.0 mg/kg/injection, schedule: Q01DX009 (ip), vehicle: Klucel (hydroxypropylcellulose) (HPC).
Setting [14] is: dose: 100.0 mg/kg/injection, schedule: Q01DX009 (ip), vehicle: Klucel (hydroxypropylcellulose) (HPC).
Where [15] appears, read: dose: 200.0 mg/kg/injection, schedule: Q01DX009 (ip), vehicle: Klucel (hydroxypropylcellulose) (HPC).
The mark [16] stands for this setting: dose: 60.0 mg/kg/injection, schedule: Q01DX005 (ip), vehicle: saline with Tween-80.
Where [17] appears, read: dose: 120.0 mg/kg/injection, schedule: Q01DX005 (ip), vehicle: saline with Tween-80.
Where [18] appears, read: dose: 240.0 mg/kg/injection, schedule: Q01DX005 (ip), vehicle: saline with Tween-80.
Where [19] appears, read: dose: 60.0 mg/kg/injection, schedule: Q01DX005 (ip), vehicle: Klucel (hydroxypropylcellulose) (HPC).
[20] abbreviates: dose: 120.0 mg/kg/injection, schedule: Q01DX005 (ip), vehicle: Klucel (hydroxypropylcellulose) (HPC).

On to `C=C/C(C)=C/[C@H](C)C(=O)C[C@H](O)CC1CC(=O)NC(=O)C1`, for which the T/C was 102 % of control (dose: 6.25 mg/kg/injection, schedule: Q01DX009 (ip), vehicle: saline with Tween-80); 111 % of control (dose: 6.25 mg/kg/injection, schedule: Q04DX003 (ip), vehicle: saline with Tween-80); 118 % of control (dose: 12.5 mg/kg/injection, schedule: Q01DX009 (ip), vehicle: saline with Tween-80); 108 % of control (dose: 12.5 mg/kg/injection, schedule: Q04DX003 (ip), vehicle: saline with Tween-80); 155 % of control (dose: 25.0 mg/kg/injection, schedule: Q01DX009 (ip), vehicle: saline with Tween-80); 111 % of control (dose: 25.0 mg/kg/injection, schedule: Q04DX003 (ip), vehicle: saline with Tween-80). Also, the T/C by setting is: (dose: 35.0 mg/kg/injection, schedule: Q01DX009 (ip), vehicle: saline with Tween-80) 151 % of control; under setting [1], 150 % of control; (dose: 50.0 mg/kg/injection, schedule: Q04DX003 (ip), vehicle: saline with Tween-80) 111 % of control; (dose: 75.0 mg/kg/injection, schedule: Q01DX009 (ip), vehicle: saline with Tween-80) 168 % of control; (dose: 75.0 mg/kg/injection, schedule: Q01DX009 (ip), vehicle: saline) 158 % of control; (dose: 100.0 mg/kg/injection, schedule: Q04DX003 (ip), vehicle: saline with Tween-80) 121 % of control. For the same compound, the T/C was 106 % of control (dose: 150.0 mg/kg/injection, schedule: Q01DX009 (ip), vehicle: saline); 101 % of control and 121 % of control (dose: 200.0 mg/kg/injection, schedule: Q04DX003 (ip), vehicle: saline with Tween-80).

As to `CC(=O)N1CCN(c2ccc(OCC3COC(Cn4ccnc4)(c4ccc(Cl)cc4Cl)O3)cc2)CC1` (configuration not stated), the T/C is, setting by setting: under setting [1], 88 % of control; under setting [2], 87 % of control.

In the case of `COc1c(C)n(CCCCCCn2ccc(=O)c(OC)c2C)ccc1=O`, the T/C reads like this: under setting [3], 92 % of control; under setting [4], 108 % of control; under setting [5], 93 % of control.

Regarding `CCC(C)N(CCNc1cc(OC)cc2cccnc12)CCC(C)C` (configuration not stated), the T/C by setting is: (dose: 50.0 mg/kg/injection, schedule: Q01DX005 (ip), vehicle: saline) 100 % of control; (dose: 100.0 mg/kg/injection, schedule: Q01DX005 (ip), vehicle: saline) 97 % of control.

On to `O=[N+]([O-])c1ccc(C2OC(c3ccncc3)=NC2CO)cc1` (configuration not stated), for which the T/C by setting is: under setting [6], 97 % of control; under setting [7], 91 % of control; under setting [8], 106 % of control.

As for `CCOC(=O)N1c2ccccc2OC1C#N` (configuration not stated), the T/C reads like this: under setting [9], 99 % of control; under setting [10], 107 % of control; under setting [11], 113 % of control.

For `COc1ccc(C=Nc2ccccc2)cc1`, the T/C reads like this: under setting [2], 100 % of control; under setting [12], 118 % of control; (dose: 400.0 mg/kg/injection, schedule: Q01DX009 (ip), vehicle: saline with Tween-80) 118 % of control.

Consider `COc1cccc(/C=C/c2ccnnc2)c1OC`, for which the T/C runs as follows: under setting [6], 104 % of control; under setting [7], 108 % of control; under setting [8], 100 % of control.

Take `Clc1ccc(-c2nc3ccccc3nc2-c2ccc(Cl)cc2)cc1`: the T/C reads like this: under setting [13], 101 % of control; under setting [14], 111 % of control; under setting [15], 106 % of control.

Take `NCCCn1ccc2c3ccccc3nc-2c1`: the T/C by setting is: (dose: 12.5 mg/kg/injection, schedule: Q01DX009 (ip), vehicle: water) 105 % of control; (dose: 25.0 mg/kg/injection, schedule: Q01DX009 (ip), vehicle: water) 90 % of control; (dose: 50.0 mg/kg/injection, schedule: Q01DX009 (ip), vehicle: water) 104 % of control; (dose: 100.0 mg/kg/injection, schedule: Q01DX009 (ip), vehicle: water) 105 % of control.

As to `NC(=S)N/N=C\C(CC(O)C(O)CO)=N\NC(N)=S` (configuration not stated), the T/C is 89 % of control under setting [9], 95 % of control under setting [10] and 98 % of control under setting [11].

Turning to `CC(C)(C)C(S)CS` (configuration not stated), the T/C was 104 % of control (dose: 12.5 mg/kg/injection, schedule: Q01DX005 (ip), vehicle: saline with Tween-80); 104 % of control (dose: 25.0 mg/kg/injection, schedule: Q01DX005 (ip), vehicle: saline with Tween-80); 101 % of control and 103 % of control under setting [9].

As for `CC1=C(/C=C/C(C)=C/C=C/C(C)=C/C=C/C=C(C)/C=C/C=C(C)/C=C/C2=C(C)C(=O)CCC2(C)C)C(C)(C)CCC1=O`, the T/C under setting [16] was 98 % of control, the T/C under setting [17] was 88 % of control and the T/C under setting [18] is 91 % of control.

Turning to `CSc1c(C(=O)O)cc(C(C)(C)C)cc1C(=O)O`, the T/C runs as follows: under setting [13], 91 % of control; under setting [14], 100 % of control; under setting [15], 91 % of control.

As to `Cn1c(N2CCOCC2)cc2nc3ccccc3n2c1=O`, the T/C under setting [16] was 96 % of control, the T/C under setting [17] is 98 % of control and the T/C under setting [18] is 96 % of control.

Take `Clc1cccc2c(SCCCCCCSc3c4ccccc4nc4c(Cl)cccc34)c3ccccc3nc12`: the T/C reads like this: under setting [19], 92 % of control; under setting [20], 88 % of control.

Turning to `Cc1c(-c2ccccc2)nn(CC(=O)O)c(=O)c1C#N`, the T/C runs as follows: (dose: 37.5 mg/kg/injection, schedule: Q04DX002 (ip), vehicle: alkali diluted with water) 106 % of control; (dose: 75.0 mg/kg/injection, schedule: Q04DX002 (ip), vehicle: alkali diluted with water) 104 % of control; (dose: 150.0 mg/kg/injection, schedule: Q04DX002 (ip), vehicle: alkali diluted with water) 106 % of control; (dose: 300.0 mg/kg/injection, schedule: Q04DX002 (ip), vehicle: alkali diluted with water) 103 % of control.

As to `O=C(Oc1ccccc1)c1ccc([N+](=O)[O-])cc1`, the T/C is, setting by setting: (dose: 25.0 mg/kg/injection, schedule: Q01DX005 (ip), vehicle: Klucel (hydroxypropylcellulose) (HPC)) 100 % of control; under setting [3], 105 % of control; under setting [4], 101 % of control; under setting [5], 104 % of control.

With `CCCN(C)CC(=O)NC(Cc1ccccc1)c1ccccc1` (configuration not stated), the T/C runs as follows: (dose: 30.0 mg/kg/injection, schedule: Q01DX005 (ip), vehicle: Klucel (hydroxypropylcellulose) (HPC)) 94 % of control; under setting [19], 93 % of control; under setting [20], 104 % of control.

Regarding `Nc1cn(C2CC(O)C(CO)O2)c(=O)[nH]c1=O` (configuration not stated), the T/C (dose: 25.0 mg/kg/injection, schedule: Q01DX009 (ip), vehicle: saline) was 106 % of control; the T/C under setting [6] was 105 % of control; the T/C under setting [7] is 105 % of control; the T/C under setting [8] was 105 % of control.

As for `CC1=C(O)c2[nH]c(Cl)c(C=O)c2C(=O)C1=O`, the T/C was 100 % of control (dose: 100.0 mg/kg/injection, schedule: Q01DX001 (ip), vehicle: saline with Tween-80); 98 % of control (dose: 200.0 mg/kg/injection, schedule: Q01DX001 (ip), vehicle: saline with Tween-80); 98 % of control (dose: 400.0 mg/kg/injection, schedule: Q01DX001 (ip), vehicle: saline with Tween-80).

With `CSC(=NC(=O)c1c(Cl)cccc1Cl)SC`, the T/C by setting is: under setting [16], 102 % of control; under setting [17], 100 % of control; under setting [18], 90 % of control.

In the case of `Cn1c(=O)c2[nH]c(Cc3ccsc3)nc2n(C)c1=O`, the T/C was 110 % of control (dose: 25.0 mg/kg/injection, schedule: Q01DX009 (ip), vehicle: Klucel (hydroxypropylcellulose) (HPC)); 93 % of control under setting [13]; 99 % of control and 95 % of control under setting [14].

`O=C(O)c1ccc(NC(=O)c2ccco2)cc1`: the T/C under setting [1] was 88 % of control, the T/C under setting [2] was 97 % of control and the T/C under setting [12] was 89 % of control.

As for `Cc1c(CCNC=O)ccc2c1[nH]c1ccccc12`, the T/C runs as follows: under setting [3], 95 % of control; under setting [4], 96 % of control; under setting [5], 100 % of control.
